# Reference: patent US20260250289A1, “BICYCLIC HETEROCYCLES AND THEIR USE AS WRN INHIBITORS” (Novartis AG, priority 2022, published 2026)
# pIC50: −log10 of the molar value.
# Experiments:
# [1] = molecular target: T1, WRN helicase (aa N517-P1238) (Homo sapiens, UniProt Q14191); test: WRN ATPase assay (DNA dependent ATP hydrolysis, ADP-Glo); format: biochemical; details: 3 hours pre-incubation, 300 micromolar ATP, FLAP26 DNA; geometric mean of at least 2
# T1 construct: The core helicase motif of the WRN protein (aa N517-P1238) was produced for this assay; His (N); ZZ (N); 3C protease cleavage site (N); made in house; host or cells: Sf21 insect cells (baculovirus; virus and BIICs made in SF9)
# T1 sequence (Q14191 517-1238): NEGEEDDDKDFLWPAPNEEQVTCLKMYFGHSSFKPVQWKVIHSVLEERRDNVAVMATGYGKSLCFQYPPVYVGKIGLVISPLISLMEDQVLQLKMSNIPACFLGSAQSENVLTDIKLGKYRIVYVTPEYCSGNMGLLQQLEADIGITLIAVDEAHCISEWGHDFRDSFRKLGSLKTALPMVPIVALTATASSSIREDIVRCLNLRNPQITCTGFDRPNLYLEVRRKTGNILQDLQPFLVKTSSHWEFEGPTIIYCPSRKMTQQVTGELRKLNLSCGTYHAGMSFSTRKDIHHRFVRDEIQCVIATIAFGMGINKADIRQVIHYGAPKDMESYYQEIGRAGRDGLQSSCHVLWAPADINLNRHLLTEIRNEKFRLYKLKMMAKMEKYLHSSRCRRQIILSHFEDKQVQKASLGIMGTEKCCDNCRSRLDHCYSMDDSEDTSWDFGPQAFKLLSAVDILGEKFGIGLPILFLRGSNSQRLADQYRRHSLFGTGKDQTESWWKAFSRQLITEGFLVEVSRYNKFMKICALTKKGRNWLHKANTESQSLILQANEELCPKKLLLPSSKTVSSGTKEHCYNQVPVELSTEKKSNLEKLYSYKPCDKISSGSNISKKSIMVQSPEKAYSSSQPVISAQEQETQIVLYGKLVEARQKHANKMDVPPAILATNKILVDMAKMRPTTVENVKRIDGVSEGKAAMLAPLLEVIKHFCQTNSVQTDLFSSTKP
# Summary of the method: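 DNA-dependent ATP hydrolysis detected as ADP by ADP-Glo luminescence, using 300 μM ATP, 0.2 nM FLAP26 substrate and 10 nM WRN aa N517-P1238 (Tris pH 7.5 buffer, 2 mM MgCl2, 50 mM NaCl). IC50s fitted from normalized duplicate half-log dilutions; reported as geometric means of at least 2 replicates.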
# SW48 cells = test: Proliferation assay SW48 (CellTiterGlo); format: cell-based; details: Homo sapiens, SW48, 96 h, SW48 colon carcinoma cells, 96 hours, CellTiterGlo; geometric mean of at least 2; read-out: Proliferation Assay SW48 GI50
# Summary of the method: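 Read-out is CellTiterGlo luminescence after 96 hours of compound exposure, with % growth calculated against day-0 and vehicle-treated ATP levels. SW48 seeded at 2,000 cells/well, dosed next day with eight 3-fold serial dilutions, 0.1% DMSO. GI50 reported as geometric mean, at least 2 replicates.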
# DLD1-WRN-KO cells = test: Proliferation assay DLD1-WRN-KO (CellTiterGlo, off-target effects); format: cell-based; details: 96 hours, geometric mean of at least 2
# Summary of the method: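 DLD1 cells with CRISPR knockout of WRN were exposed overnight-seeded to eight 3-fold compound dilutions (0.1% DMSO) for 96 h at 37 °C. Viability was read as ATP by CellTiterGlo luminescence against a day-0 plate, giving GI50 and residual viability at top concentration.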
SMILES,pIC50 [1],GI50 (SW48 cells),GI50 (DLD1-WRN-KO cells)
"CC(=O)N1CCN(c2c(C)n(CC(=O)Nc3ccc(Cl)c(Cl)c3)c3nc(-c4ccc(CN(C)C(=O)OC5CC/C=C/CCC5)cc4)nn3c2=O)CC1 (stereo not drawn) [Example 102, (E)-cyclooct-4-en-1-yl (4-(6-(4-acetylpiperazin-1-yl)-4-(2-((3,4-dichlorophenyl)amino)-2-oxoethyl)-5-methyl-7-oxo-4,7-dihydro-[1,2,4]triazolo[1,5-a]pyrimidin-2-yl)benzyl)(methyl)carbamate]",< 5.52,7 µM,5 µM
"CC(=O)N1CCN(c2c(C)n(CC(=O)Nc3cc(F)c(C(F)(F)F)c(F)c3)c3nc(C4=CCOCC4)nn3c2=O)CC1 [Example 103, 2-(6-(4-acetylpiperazin-1-yl)-2-(3,6-dihydro-2H-pyran-4-yl)-5-methyl-7-oxo-[1,2,4]triazolo[1,5-a]pyrimidin-4(7H)-yl)-N-(3,5-difluoro-4-(trifluoromethyl)phenyl)acetamide]",5.40,4 µM,> 10 µM
"CC(=O)N1CCN(c2c(C)n(CC(=O)Nc3ccc(C(F)(F)F)cc3)c3nc(-c4cccnc4)nn3c2=O)CC1 [Example 106, 2-(6-(4-acetylpiperazin-1-yl)-5-methyl-7-oxo-2-(pyridin-3-yl)-[1,2,4]triazolo[1,5-a]pyrimidin-4(7H)-yl)-N-(4-(trifluoromethyl)phenyl)acetamide]",7.00,0.2 µM,> 10 µM
"CC(=O)N1CCN(c2c(C)n(CC(=O)Nc3cc(Cl)c(C(F)(F)F)cc3C)c3nc(C4=CCOCC4)nn3c2=O)CC1 [Example 108, 2-(6-(4-acetylpiperazin-1-yl)-2-(3,6-dihydro-2H-pyran-4-yl)-5-methyl-7-oxo-[1,2,4]triazolo[1,5-a]pyrimidin-4(7H)-yl)-N-(5-chloro-2-methyl-4-(trifluoromethyl)phenyl)acetamide]",6.70,0.9 µM,> 10 µM
"CC(=O)N1CCN(c2c(C)n(CC(=O)Nc3ccc(C(F)(F)F)cc3)c3nc(C4=CCCCO4)nn3c2=O)CC1 [Example 109, 2-(6-(4-acetylpiperazin-1-yl)-2-(3,4-dihydro-2H-pyran-6-yl)-5-methyl-7-oxo-[1,2,4]triazolo[1,5-a]pyrimidin-4(7H)-yl)-N-(4-(trifluoromethyl)phenyl)acetamide]",6.70,4 µM,> 10 µM
"CC(=O)N1CCN(c2c(C)n(CC(=O)Nc3ccc(C(F)(F)F)cc3)c3nc(C4=CCC(N5CC(F)(F)C5)CC4)nn3c2=O)CC1 (stereo not drawn) [Example 114, 2-(6-(4-acetylpiperazin-1-yl)-2-(4-(3,3-difluoroazetidin-1-yl)cyclohex-1-en-1-yl)-5-methyl-7-oxo-[1,2,4]triazolo[1,5-a]pyrimidin-4(7H)-yl)-N-(4-(trifluoromethyl)phenyl) acetamide]",6.40,2 µM,> 10 µM
"CC(=O)N1CCN(c2c(C)n(CC(=O)Nc3ccc(C(F)(F)F)cc3)c3nc(C4=CCC(F)(F)CC4)nn3c2=O)CC1 [Example 118, 2-(6-(4-acetylpiperazin-1-yl)-2-(4,4-difluorocyclohex-1-en-1-yl)-5-methyl-7-oxo-[1,2,4]triazolo[1,5-a]pyrimidin-4(7H)-yl)-N-(4-(trifluoromethyl)phenyl)acetamide]",6.22,9 µM,> 10 µM

# More lines, in order of rising pIC50 [1], values ahead:
pIC50 [1],GI50 (SW48 cells),GI50 (DLD1-WRN-KO cells),SMILES
5.70,4 µM,> 10 µM,"CC(=O)N1CCN(c2c(C)n(CC(=O)Nc3cc(Cl)c(C)cc3Cl)c3nc(C4=CCOCC4)nn3c2=O)CC1 [Example 100, 2-(6-(4-acetylpiperazin-1-yl)-2-(3,6-dihydro-2H-pyran-4-yl)-5-methyl-7-oxo-[1,2,4]triazolo[1,5-a]pyrimidin-4(7H)-yl)-N-(2,5-dichloro-4-methylphenyl)acetamide]"
5.70,10 µM,> 10 µM,"CC(=O)N1CCN(c2c(C)n(CC(=O)Nc3cc(F)c(C(F)(F)F)nc3Cl)c3nc(C4=CCOCC4)nn3c2=O)CC1 [Example 101, 2-(6-(4-acetylpiperazin-1-yl)-2-(3,6-dihydro-2H-pyran-4-yl)-5-methyl-7-oxo-[1,2,4]triazolo[1,5-a]pyrimidin-4(7H)-yl)-N-(2-chloro-5-fluoro-6-(trifluoromethyl)pyridin-3-yl)acetamide]"
6.10,8 µM,> 10 µM,"CC(=O)N1CCN(c2c(C)n(CC(=O)Nc3ccc(C(F)(F)F)cc3)c3nc(C4=COCCO4)nn3c2=O)CC1 [Example 104, 2-(6-(4-acetylpiperazin-1-yl)-2-(5,6-dihydro-1,4-dioxin-2-yl)-5-methyl-7-oxo-[1,2,4]triazolo[1,5-a]pyrimidin-4(7H)-yl)-N-(4-(trifluoromethyl)phenyl)acetamide]"
6.30,2 µM,5 µM,"CC(=O)N1CCN(c2c(C)n(CC(=O)Nc3ccc(C(F)(F)F)cc3)c3nc(-c4ccccn4)nn3c2=O)CC1 [Example 115, 2-(6-(4-acetylpiperazin-1-yl)-5-methyl-7-oxo-2-(pyridin-2-yl)-[1,2,4]triazolo[1,5-a]pyrimidin-4(7H)-yl)-N-(4-(trifluoromethyl)phenyl)acetamide]"
6.52,5 µM,> 10 µM,"CC(=O)N1CCN(c2c(C)n(CC(=O)Nc3ccc(C(F)(F)F)cc3)c3nc(N4CCC(N(C)CC(F)F)CC4)nn3c2=O)CC1 [Example 113, 2-(6-(4-acetylpiperazin-1-yl)-2-(4-((2,2-difluoroethyl)(methyl)amino)piperidin-1-yl)-5-methyl-7-oxo-[1,2,4]triazolo[1,5-a]pyrimidin-4(7H)-yl)-N-(4-(trifluoromethyl)phenyl)acetamide]"
6.70,3 µM,> 10 µM,"COC1CC=C(c2nc3n(CC(=O)Nc4ccc(C(F)(F)F)cc4)c(C)c(N4CCN(C(C)=O)CC4)c(=O)n3n2)CC1 (stereo not drawn) [Example 107, 2-(6-(4-acetylpiperazin-1-yl)-2-(4-methoxycyclohex-1-en-1-yl)-5-methyl-7-oxo-[1,2,4]triazolo[1,5-a]pyrimidin-4(7H)-yl)-N-(4-(trifluoromethyl)phenyl)acetamide]"
6.70,5 µM,> 10 µM,"CC(=O)N1CCN(c2c(C)n(CC(=O)Nc3ccc(C(F)(F)F)cc3)c3nc(C4=CCCC4)nn3c2=O)CC1 [Example 110, 2-(6-(4-acetylpiperazin-1-yl)-2-(cyclopent-1-en-1-yl)-5-methyl-7-oxo-[1,2,4]triazolo[1,5-a]pyrimidin-4(7H)-yl)-N-(4-(trifluoromethyl)phenyl)acetamide]"
7.00,0.8 µM,5 µM,"CC(=O)N1CCN(c2c(C)n(CC(=O)Nc3ccc(C(F)(F)F)cc3)c3nc(C4=CCN(C(=O)OC(C)(C)C)CC4)nn3c2=O)CC1 [Example 105, tert-butyl 4-(6-(4-acetylpiperazin-1-yl)-5-methyl-7-oxo-4-(2-oxo-2-((4-(trifluoromethyl)phenyl)amino)ethyl)-4,7-dihydro-[1,2,4]triazolo[1,5-a]pyrimidin-2-yl)-3,6-dihydropyridine-1(2H)-carboxylate]"
